Measured values as given in patent US20260262643A1, “HERBICIDAL BENZOXAZINES” (FMC CORPORATION, priority 2022, published 2026).

System: barnyardgrass
Assay: Test A preemergence
Format: in vivo, Echinochloa crusgalli
Settings: visual injury after 10 days, 0 to 100 scale, 0 is no effect, 100 is complete control
Outline: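 Plants were grown in loam and sand and treated preemergence or postemergence (one- to two-leaf stage, 2–10 cm) with compound in solvent plus surfactant. Response was scored against untreated controls after 10 greenhouse days, where 0 means no effect and 100 complete control.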

| SMILES | Plant response rating, Barnyardgrass (125 g ai/ha) | Plant response rating, Barnyardgrass (500 g ai/ha) |
| --- | --- | --- |
| Cc1cccc2c1O[C@@H](C)CN2C(=O)c1cccc(-n2cnc(C3COC3)n2)c1 [Compound 109, [(2S)-2,3-Dihydro-2,8-dimethyl-4H-1,4-benzoxazin-4-yl][3-[3-(3-oxetanyl)-1H-1,2,4-triazol-1-yl]phenyl]methanone] | 90 |  |
| C[C@H]1CN(C(=S)c2cccc(-n3cncn3)c2)c2cccc(Cl)c2O1 [Compound 139, [(2S)-8-Chloro-2,3-dihydro-2-methyl-4H-1,4-benzoxazin-4-yl][3-(1H-1,2,4-triazol-1-yl)phenyl]methanethione] | 70 | 90 |
| CC(C)c1ncn(-c2cc(C(=O)N3C[C@H](C)Oc4c(Cl)cccc43)c3ccccc3c2)n1 [Compound 145] | 0 | 40 |
| CC(C)c1ncn(-c2cc(C(=O)N3C[C@H](C)Oc4c(Cl)cccc43)c3ccccc3c2)n1 [Compound 146] | 20 | 70 |
| CC(C)c1ncn(-c2cc3c(c(C(=O)N4C[C@H](C)Oc5c(Cl)cccc54)c2)OCC3)n1 [Compound 147] | 40 | 100 |
